Values of other authors as cited in patent US11395811B2, “Compositions comprising a fatty acid oil mixture comprising EPA and DHA in free acid form and a surfactant, and methods and uses thereof” (ProNova BioPharma Norge AS, priority 2009, dated 2022).
Like-named read-outs stand apart in the source and are kept apart here.

Row | Substance | HLB Value (Brij surfactants, Table 2) | HLB Value (Myrj surfactants, Table 5) | other results
1 | Polyoxyethylene (2) cetyl ether [Brij ® 52] | 5.3 | – | –
2 | Polyoxyethylene (2) oleyl ether [Brij ® 92V] | 4.9 | – | –
3 | Polyoxyethylene (2) oleyl ether [Brij ® 93] | 4 | – | –
4 | Polyoxyethylene(4) lauryl ether [Brij ® 30] | 9.7 | – | –
5 | polyethylene glycol oleyl ether [Brij ® 96V] | 12.4 | – | –
6 | polyoxyethylene (2) stearyl ether [Brij ® 72] | 4.9 | – | –
7 | polyoxyethylene (20) sorbitan monolaurate [Tween ® 20] | – | – | HLB Value (Tween surfactants, Table 4): 16.0
8 | polyoxyethylene (100) stearyl ether [Brij ® 700] | 18 | – | –
9 | polyoxyethylene monostearate [Myrj ® 45] | – | 11.1 | –
10 | polyoxyethylene monostearate [Myrj ® 49] | – | 15.0 | –
11 | polyoxyethylene monostearate [Myrj ® 52] | – | 16.9 | –
12 | polyoxyethylene monostearate [Myrj ® 53] | – | 17.9 | –
